Source: patent US20210205271A1 (The Johns Hopkins University, priority 2018, published 2021)
Values after ≈ are worked out from the molar mass of the structure shown. Values joined by “and” are separate entries in the source; they are usually repeats but may differ in a detail not shown here. Identical values can stand only once.

Legend:
[1] = In vitro stability in mouse jejunum (intestinal) homogenate; type: in vitro ADME; conditions: for In vitro stability in mouse (% remaining at 60 min) Intestinal homogenate: 10 μM
Method: (§1) In addition to solubility, all prodrugs were screened for in vitro metabolic stability in mouse jejunum homogenate, liver microsomes and plasma (see Table 3) to characterize their bioconversion to MBZ. The screening paradigm was designed to confirm activation of prodrugs to MBZ following oral administration in these highly metabolic sites. Initial screening was done in mouse jejunum homogenate by incubating the compounds for 60 min. […] Following jejunum stability, the prodrugs were screened in mouse liver microsomes.
(§2) In vitro stability studies were done using mouse jejunum homogenate, mouse liver microsomes or naïve mouse plasma. For mouse jejunum homogenate stability study, washed mouse jejunum was diluted 10-fold in 0.1 M potassium phosphate buffer, and homogenized using probe sonication. Crude homogenate was then aliquoted to 1 mL and the homogenate was spiked with 10 μM of compound. Liver microsome stability assay was performed in 100 mM potassium phosphate buffer, pH 7.4, and reactions were initiated by addition of the liver microsomes to the incubation mixture (compound final concentration was 10 μM; 0.5 mg/mL microsomes). The plasma stability of the prodrugs was determined by spiking (10 μM) of prodrugs in 1 mL of plasma and incubating in an orbital shaker at 37° C. All the stability studies were conducted at predetermined times (0 and 60 min), where 100 μL aliquots of the mixture in triplicate were removed and the reaction was quenched by addition of three times the volume of ice cold acetonitrile spiked with the internal standard (losartan: 0.5 μM). The samples were vortex mixed for 30 sec and centrifuged at 10000×g for 10 min at 4° C. Fifty microliter of the supernatant was diluted with 50 μL water and transferred to a 2504 polypropylene vial sealed with a Teflon cap. Prodrug disappearance was monitored over time using liquid chromatography and tandem mass spectrometry (LC-MS/MS).
(§3) Briefly, prodrugs were analyzed on a Thermo Scientific Accela UPLC system coupled to Accela open autosampler at ambient temperature with an Agilent Eclipse Plus column (100×2.1 mm i.d.) packed with a 1.8 μm C18 stationary phase. The autosampler was temperature controlled and operated at 10° C. The mobile phase used for the chromatographic separation was composed of acetonitrile/water containing 0.1% formic acid and with a flow rate of 0.4 mL/min for 4.5 min using gradient elution. The column effluent was monitored using TSQ Vantage triple-quadrupole mass-spectrometric detector, equipped with an electrospray probe set in the positive ionization mode. Samples were introduced into the ionization source through a heated nebulized probe (350° C.). Disappearance of prodrugs was measured from ratio of peak areas of analyte to IS.

[2] = In vitro stability in mouse plasma; type: in vitro ADME; conditions: for In vitro stability in mouse (% remaining at 60 min) Plasma: 10 μM, 37° C.
Method: as §1, §2, §3

physchem = conditions: for solubility at 24 h: 37 °C, thermodynamic from solid; for fold improvement in solubility over MBZ-C: 24 h, pH 7.4
Method: The aqueous solubility was determined as previously reported using the shake-flask procedure published by Zhou, et al., 2007. The compound was added to PBS buffer (0.01 M) and shaken for 24 h at 37° C. to ensure saturation. After 24 h, the solution was centrifuged (10,000 rpm, 2 min, RT) filtered (0.45 μm PTFE) and the filtrate was diluted appropriately (i.e. neat, 1/10, 1/100, 1/1000) and the concentration of compound was determined using LC/MS.

[3] = Chemical stability in PBS at 37° C. (LC-MS); type: physicochemical; conditions: for chemical stability: aqueous environment / PBS
Method: Prodrugs were also tested for chemical stability in 0.01 M PBS for 60 min at 37° C. by monitoring intact prodrug using LC-MS. […] Thus prodrug 14 was not assessed in assays due to its significant instability in PBS at pH 7.4.
Prodrug chemical stability was measured by the addition of 1 μL, of 10 mM DMSO stock solution to 1 mL of preheated (37° C.) […], resulting in a final concentration of 10 μM. The mixture was vortex mixed for 30 sec, and then incubated at 37° C. At specified time points 100 μL of the mixture was removed and extracted with 300 μL of cold acetonitrile (0° C.) with internal standard. This mixture was further diluted with 400 μL of water and the resulting solution was analyzed by LC-MS.

[4] = In vitro stability in mouse liver microsomes; type: in vitro ADME; conditions: for In vitro stability in mouse (% remaining at 60 min) Liver microsomes: 10 μM, 0.5 mg/mL microsomes
Method: as §1, §2, §3

[5] = male, CD-1, mouse, in vivo, 30 mg/kg
Method: (§4) All pharmacokinetic studies in mice were conducted according to protocols approved by the Animal Care and Use Committee at Johns Hopkins University. Male CD-1 mice between 25 and 30 g were obtained from Harlan, and maintained on a 12-h light-dark cycle with ad libitum access to food and water. […] The mice were sacrificed at specified time points post drug administration. For collection of plasma and brain tissue, animals were euthanized with CO2, and blood samples were collected in heparinized microtubes by cardiac puncture. Tissues were dissected and immediately flash frozen (−80° C.). Blood samples were spun at 2,000×g for 15 min, plasma was removed and stored at −80° C. until LC/MS analysis. Prior to extraction, frozen samples were thawed on ice. The calibration curves were developed using plasma and brain from naïve animals as a matrix. Plasma samples (50 μL), were processed using a single liquid extraction method by addition of 3004 of acetonitrile as with internal standard (losartan: 0.5 μM), followed by vortex mixing for 30 sec and then centrifugation at 10,000×g for 10 min at 4° C. For brain tissue, homogenized samples were vortex mixed and centrifuged as above. A 104 aliquot of supernatant was diluted with 35 µL of acetonitrile and mixed with 50 μL water containing 0.5 μM losartan as internal standard. Extracts were centrifuged at 10,000×g for 10 min at 4° C. Supernatants were transferred to 2504 polypropylene autosampler vials sealed with a Teflon cap. A volume of 34 was injected onto the ultra-performance liquid chromatography (UPLC) instrument for quantitative analysis by LC-MS/MS.
The a priori level of significance for all analyses was defined asp <0.05.

[6] = in vivo, po
Method: Brain concentrations of MBZ were also measured in tandem.
as §4

[7] = cited from earlier work

Row | SMILES | In vitro stability in mouse (% remaining at 60 min) Intestinal homogenate [1] | In vitro stability in mouse (% remaining at 60 min) Plasma [2] | fold improvement in solubility over MBZ-C (physchem) | In vitro stability in mouse (% remaining at 60 min) Liver microsomes [4] | also measured
1 | COC(=O)Nc1nc2cc(C(=O)c3ccccc3)ccc2n1COC(=O)CNC(=O)[C@H](CC(C)C)NC(C)=O [Compound 7, (5-Benzoyl-2-((methoxycarbonyl)amino)-1H-benzo[d]imidazol-1-yl)methyl acetyl-L-leucylglycinate] | 18 ± 1% | 0 ± 0% | greater than 200 fold | 29 ± 1% | solubility at 24 h (physchem; pH 7.4, aqueous buffer): 85.5 µg/mL (≈ 159 µM); chemical stability [3]: sufficiently stable; MBZ plasma concentration at 1 h post oral administration [5]: 8.72 ± 0.63 nmol/mL
2 | COC(=O)Nc1nc2cc(C(=O)c3ccccc3)ccc2n1COC(=O)OC[C@H]1OC(O)[C@H](O)[C@@H](O)[C@@H]1O (stereo partly drawn) [Compound 9, Methyl (5-benzoyl-1-((((((2R,3S,4S,5R)-3,4,5,6-tetrahydroxytetrahydro-2H-pyran-2-yl)methoxy)carbonyl)oxy)methyl)-1H-benzo[d]imidazol-2-yl)carbamate] | 4 ± 0% | 18 ± 0% | greater than 200 fold | 27 ± 0% | solubility at 24 h (physchem; pH 7.4, aqueous buffer): 220 µg/mL (≈ 414 µM); metabolized in mouse plasma ([2]; 60 min incubation): 82%
3 | COC(=O)Nc1nc2cc(C(=O)c3ccccc3)ccc2n1COC(=O)CC[C@H](N)C(=O)O [Compound 14, (S)-2-Amino-5-((5-benzoyl-2-((methoxycarbonyl)amino)-1H-benzo[d]imidazol-1-yl)methoxy)-5-oxopentanoic acid] |  |  |  |  | solubility at 24 h (physchem; pH 7.4, water): 451 µg/mL (≈ 992 µM); chemical stability, % remaining at 60 min ([3]; 0.01 M PBS, 37° C., 60 min): 0%; chemical stability [3]: too unstable
4 | COC(=O)Nc1nc2cc(C(=O)c3ccccc3)ccc2n1C(C)OC(=O)C(C)(C)C (centres unmarked) [Compound 15, 1-(5-benzoyl-2-((methoxycarbonyl)amino)-1H-benzo[d]imidazol-1-yl)ethyl pivalate] | 60% | 85% |  |  | 
5 | COC(=O)Nc1nc2cc(C(=O)c3ccccc3)ccc2n1C(OC(=O)C(C)(C)C)C(C)C (centres unmarked) [Compound 16, 1-(5-benzoyl-2-((methoxycarbonyl)amino)-1H-benzo[d]imidazol-1-yl)-2-methylpropyl pivalate] | 100% |  |  |  | 
6 | COC(=O)Nc1nc2ccc(C(=O)c3ccccc3)cc2[nH]1 [MBZ, Mebendazole] |  |  |  |  | oral bioavailability ([7]; pilot human study, one subject, intravenous and oral [3H]-mebendazole): 17%; bioavailability ([7]; second human study, five subjects): 22% and 12-35%

The next lines start with results.

Row | In vitro stability in mouse (% remaining at 60 min) Intestinal homogenate [1] | In vitro stability in mouse (% remaining at 60 min) Plasma [2] | fold improvement in solubility over MBZ-C (physchem) | In vitro stability in mouse (% remaining at 60 min) Liver microsomes [4] | SMILES | also measured
7 | 37 ± 2% | 4 ± 0% |  |  | COC(=O)Nc1nc2cc(C(=O)c3ccccc3)ccc2n1COC(=O)C(C)(C)C [Compound 1, (5-Benzoyl-2-((methoxycarbonyl)amino)-1H-benzo[d]imidazol-1-yl)methyl pivalate] | 
8 | 30 ± 2% | 78 ± 1% | greater than 200 fold | 24 ± 0% | COC(=O)Nc1nc2cc(C(=O)c3ccccc3)ccc2n1COC(=O)CCC(=O)O [Compound 8, 4-((5-Benzoyl-2-((methoxycarbonyl)amino)-1H-benzo[d]imidazol-1-yl)methoxy)-4-oxobutanoic acid] | solubility at 24 h (physchem; pH 7.4, aqueous buffer): 386 µg/mL (≈ 908 µM)
9 | 35 ± 4% | 62 ± 1% |  | 100 ± 2% | COC(=O)Nc1nc2cc(C(=O)c3ccccc3)ccc2n1COP(=O)(O)O [Compound 11, Methyl (5-benzoyl-1-((phosphonooxy)methyl)-1H-benzo[d]imidazol-2-yl)carbamate] | stability in liver microsomes ([4]; 60 min incubation): stable; MBZ plasma concentration at 1 h post oral administration [5]: 8.53 ± 2.33 nmol/mL
10 | 1 ± 0% | 73 ± 3% | > 10,000 fold | 14 ± 0% | COC(=O)Nc1nc2cc(C(=O)c3ccccc3)ccc2n1COP(=O)([O-])OCOC(=O)OC(C)C.[Na+] [Compound 12, Methyl (5-benzoyl-1-(((hydroxy(((isopropoxycarbonyl)oxy)methoxy)phosphoryl)oxy)methyl)-1H-benzo[d]imidazol-2-yl)carbamate, sodium salt] | stability in intestinal tissue homogenate [1]: unstable; MBZ plasma concentration at 1 h post oral administration [5]: 10.35 ± 2.57 nmol/mL; fold improvement in plasma MBZ over MBZ-C ([5]; po, 1 h): 3.6 fold; AUC0-t (MBZ, plasma) ([6]; male, CD-1, mouse, 30 mg/kg): 27.9 µM·h; brain AUC0-t ([6]; male, CD-1, mouse, 30 mg/kg): 21.9 µM·h; fold enhanced plasma AUC0-t compared to MBZ-C ([6]; male, CD-1, mouse, 30 mg/kg): 2.2 fold; fold increase in brain AUC0-t over MBZ-C ([6]; male, CD-1, mouse, 30 mg/kg): 1.7 fold; intact prodrug in brain samples ([6]; mouse): no intact prodrug was detected; intact prodrug in plasma samples ([6]; mouse): no intact prodrug was detected; AUC0-t (MBZ, brain) ([6]; mouse, 30 mg/kg): 21.9 ± 2.0 nmol·h/g
11 | 46% | 89% |  | 82% | COC(=O)Nc1nc2cc(C(=O)c3ccccc3)ccc2n1COP(=O)([O-])OC(C)OC(=O)OC(C)C.[Na+] (centres unmarked) [Compound 17, Methyl (5-benzoyl-1-(((hydroxy(((isopropoxycarbonyl)oxy)ethoxy)phosphoryl)oxy)methyl)-111-benzo[d]imidazol-2-yl)carbamate, sodium salt] | 
